From article PMC2934701 (The Journal of Biological Chemistry, 2010)
Changes are numbered by the printed parent chain.

Columns and labels:
Test in all cases: Fluo-4 calcium assay, HEK293T + Galpha16gust44
Assay type in all cases: cell-based
[1] = target: T1, hTAS2R16 (ssr3-hTAS2R16) (Homo sapiens, UniProt Q9NYV7, W94Y)
T1 sequence (Q9NYV7 1-291 W94Y): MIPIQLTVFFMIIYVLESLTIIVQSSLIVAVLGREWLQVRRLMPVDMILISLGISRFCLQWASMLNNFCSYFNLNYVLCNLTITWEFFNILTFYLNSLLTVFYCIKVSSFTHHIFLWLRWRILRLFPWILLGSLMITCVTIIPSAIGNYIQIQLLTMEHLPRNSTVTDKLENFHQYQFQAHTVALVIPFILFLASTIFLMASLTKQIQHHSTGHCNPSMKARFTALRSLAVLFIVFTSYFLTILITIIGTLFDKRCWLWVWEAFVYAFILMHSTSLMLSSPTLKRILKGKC

[2] = target: T2, hTAS2R16 (ssr3-hTAS2R16) (Homo sapiens, UniProt Q9NYV7)
T2 sequence (Q9NYV7 1-291): T1 sequence (Q9NYV7 1-291 W94Y) with Y94W

[3] = target: T3, hTAS2R16 (ssr3-hTAS2R16) (Homo sapiens, UniProt Q9NYV7, I243V)
T3 sequence (Q9NYV7 1-291 I243V): T1 sequence (Q9NYV7 1-291 W94Y) with Y94W, I243V

[4] = target: T4, hTAS2R16 (ssr3-hTAS2R16) (Homo sapiens, UniProt Q9NYV7, F93Y)
T4 sequence (Q9NYV7 1-291 F93Y): T1 sequence (Q9NYV7 1-291 W94Y) with F93Y, Y94W

[5] = target: T5, hTAS2R16 (ssr3-hTAS2R16) (Homo sapiens, UniProt Q9NYV7, F240W)
T5 sequence (Q9NYV7 1-291 F240W): T1 sequence (Q9NYV7 1-291 W94Y) with Y94W, F240W

[6] = target: T6, hTAS2R16 (ssr3-hTAS2R16) (Homo sapiens, UniProt Q9NYV7, Q177A)
T6 sequence (Q9NYV7 1-291 Q177A): T1 sequence (Q9NYV7 1-291 W94Y) with Y94W, Q177A

[7] = target: T7, hTAS2R16 (ssr3-hTAS2R16) (Homo sapiens, UniProt Q9NYV7, I243A)
T7 sequence (Q9NYV7 1-291 I243A): T1 sequence (Q9NYV7 1-291 W94Y) with Y94W, I243A

[8] = target: T8, hTAS2R16 (ssr3-hTAS2R16) (Homo sapiens, UniProt Q9NYV7, E86Q)
T8 sequence (Q9NYV7 1-291 E86Q): T1 sequence (Q9NYV7 1-291 W94Y) with E86Q, Y94W

## OCc1ccccc1O[C@@H]1O[C@H](CO)[C@@H](O)[C@H](O)[C@H]1O [salicin]
[1]
  EC50: 1360 µM
[2]
  EC50: 220 µM
[3]
  EC50: 840 µM
[4]
  EC50: 10000 µM
[5]
  EC50: 2050 µM
[6]
  EC50: 550 µM
[7]
  EC50: > 30000 µM
[8]
  EC50: 1250 µM
